According to patent publication US20090305271A1, “In Vitro Assay Based on Camp Levels Modulated by Gi-Coupled Receptors” (priority 2006, published 2009):

Assays:
Format in all cases: cell-based
[1] = system: adenylyl cyclase isoform V and/or VI; experiment: cAMP production with NKH-477 instead of forskolin as in vitro activator of cAMP formation; conditions: cells expressing the adenylyl cyclase isoform V and/or VI
[2] = target: T1, human dopamine D4.4 receptor (Homo sapiens, UniProt P21917); experiment: cAMP assay with NKH477 or forskolin as activator, D4.4 receptor stably expressed in CHO-K1; conditions: D4.4 in CHO-K1, 1 μM of agonist (dopamine)
T1 construct: expressed in transfected cells; host or cells: CHO-K1
T1 sequence (P21917 1-419): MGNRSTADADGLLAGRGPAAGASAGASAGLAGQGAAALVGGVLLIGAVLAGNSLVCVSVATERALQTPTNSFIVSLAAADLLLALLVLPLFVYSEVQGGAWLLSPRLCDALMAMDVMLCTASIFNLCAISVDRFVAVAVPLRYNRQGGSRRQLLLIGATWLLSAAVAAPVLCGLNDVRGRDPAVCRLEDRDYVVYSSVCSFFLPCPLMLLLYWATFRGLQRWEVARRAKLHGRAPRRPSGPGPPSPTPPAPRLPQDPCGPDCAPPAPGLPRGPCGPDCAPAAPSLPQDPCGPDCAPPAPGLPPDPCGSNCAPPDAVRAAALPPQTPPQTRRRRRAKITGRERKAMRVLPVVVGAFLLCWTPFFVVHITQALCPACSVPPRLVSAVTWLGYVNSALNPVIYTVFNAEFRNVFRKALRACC
Experimental: cAMP measurements on CHO-K1 cells that stably expressed the human muscarinic M4 or the human dopamine D4.4 receptor were performed via the HTRF (homogeneous time-resolved fluorescence) technology (CIS Bio, France). The principle of these cAMP assays is based on a competition between cAMP produced by cells and cAMP-XL665 conjugate for the binding with monoclonal anti-cAMP-cryptate conjugate. The HTRF) conjugates are prepared in lysis buffer so that the cell lysis and the detection step can be performed simultaneously.
(§1) To measure the production of cAMP from cells, cells were harvested and resuspended with HBSS Buffer. Varying concentrations of cells were plated in a 96-well plate. Serial dilutions of agonists (Dopamine or Epinephrine) were added and incubated for 10′ at room temperature with the cells. Forskolin or NKH477 were added, and the plate was incubated at 37° C. for 10 minutes. After cell induction, the assay reagents were added as outlined in the assay procedure.
For the D4—CHO K1 cell line (D4 stably transfected in CHO K1 host cell line) 0.7 μM of NKH477 and Forskolin were used with or without 1 μM of Dopamine
(§2) c) CHO-K1 cells expressing D4.4, alpha2c H3 and D2S receptors were exposed to increasing concentrations of ligands, respectively dopamine, epinephrine, histamine and dopamine ranging from 0.01 nM to 10 μM in the presence of 30 μM forskolin or 10 μM NKH-477.

[3] = target: T2, alpha 2c receptor (Homo sapiens, UniProt P18825); experiment: cAMP assay with NKH477 or forskolin as activator, alpha 2c receptor stably expressed in CHO-S; conditions: alpha 2c in CHO-S, 1 μM of agonist (epinephrine)
T2 construct: expressed in transfected cells; host or cells: CHO-S
T2 sequence (P18825 1-462): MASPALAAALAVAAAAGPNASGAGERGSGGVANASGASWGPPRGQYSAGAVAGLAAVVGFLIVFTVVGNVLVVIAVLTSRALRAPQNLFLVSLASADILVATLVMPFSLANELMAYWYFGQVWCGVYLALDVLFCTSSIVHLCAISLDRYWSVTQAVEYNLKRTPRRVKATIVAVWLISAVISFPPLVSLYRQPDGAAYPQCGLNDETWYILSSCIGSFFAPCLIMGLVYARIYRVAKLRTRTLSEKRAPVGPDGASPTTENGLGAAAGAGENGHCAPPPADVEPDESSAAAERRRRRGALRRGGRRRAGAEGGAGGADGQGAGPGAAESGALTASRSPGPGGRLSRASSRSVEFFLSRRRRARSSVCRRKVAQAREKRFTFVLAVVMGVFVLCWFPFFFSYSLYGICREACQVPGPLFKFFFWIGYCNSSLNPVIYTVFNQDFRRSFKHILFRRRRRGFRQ
Experimental: as §1
For the alpha2c—CHO S cell line (alpha 2c stably transfected in CHO S host cell line) was incubate with 5 μM of NKH477 and Forskolin 10′ at 37° C. without or with 1 μM of Epinephrine
as §2

[4] = target: T3, human muscarinic M4 (Homo sapiens, UniProt P08173); experiment: cAMP HTRF functional assay, forskolin-induced cAMP production in M4/CHO/miRNA cell line
T3 construct: expressed in transfected cells; host or cells: CHO-K1 (M4/CHO and M4/CHO/miRNA cell lines)
T3 sequence (P08173 1-479): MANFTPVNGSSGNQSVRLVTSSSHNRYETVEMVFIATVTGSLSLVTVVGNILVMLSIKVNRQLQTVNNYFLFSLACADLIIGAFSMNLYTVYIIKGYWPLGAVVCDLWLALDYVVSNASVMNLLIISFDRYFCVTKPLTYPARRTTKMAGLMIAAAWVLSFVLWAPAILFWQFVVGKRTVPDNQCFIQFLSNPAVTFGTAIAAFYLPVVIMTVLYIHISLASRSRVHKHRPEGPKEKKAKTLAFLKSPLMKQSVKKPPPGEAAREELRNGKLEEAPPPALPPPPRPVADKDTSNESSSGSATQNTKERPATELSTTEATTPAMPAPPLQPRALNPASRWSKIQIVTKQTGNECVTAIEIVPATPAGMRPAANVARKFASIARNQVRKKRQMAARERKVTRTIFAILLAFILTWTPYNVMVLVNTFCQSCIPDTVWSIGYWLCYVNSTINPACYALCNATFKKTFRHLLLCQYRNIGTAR
Experimental: CHO-K1 stably expressing the human muscarinic M4 or the human dopamine D4.4 receptor were cultured under standard conditions. Cells were harvested by EDTA, washed once in phosphate buffered saline and resuspended in assay buffer (HBSS containing 0.1% glucose and 0.5 mM IBMX). The cells were dispensed into a black 96 half-well plate at a cell density of 10,000-15,000 cells. After incubation for 30 min at room temperature or at 37° C., an equal volume of assay buffer containing forskolin, then acetylcholine or quimpirole was added to the cells. After incubation for 30 min at room temperature or 37° C., cAMP detection was performed following the protocol described above. The plate was incubated for one more hour at room temperature and then measured on a RUBYstar^a (BMG Labtechnologies) time-resolved fluorescence reader. […]

| Structure (SMILES) | increase of the production of cAMP instead of forskolin [1] | enhancement of cAMP production inhibition with NKH477 instead of forskolin [2] | signal window compared with Forskolin [2] | enhancement of cAMP production inhibition with NKH477 instead of forskolin [3] | signal window compared with Forskolin [3] | inhibition at 1 µM ([4]; 1 μM, M4/CHO/miRNA cell line, read-out: inhibition of Forskolin stimulated cAMP production) [%] | increase of inhibitory potency on Forskolin induced cAMP production compared to wild CHO cells expressing M4 receptor ([4]; M4/CHO/miRNA versus M4/CHO) |
| --- | --- | --- | --- | --- | --- | --- | --- |
| C=C[C@@]1(C)CC(=O)[C@]2(O)[C@@]3(C)[C@@H](O)CCC(C)(C)[C@@H]3[C@H](OC(=O)CCN(C)C)[C@H](OC(C)=O)[C@@]2(C)O1.Cl [NKH477, 6-(3-dimethylaminopropionyl) forskolin hydrochloride] | up to 20% | up to 20% | greater signal window than Forskolin | up to 20% | greater signal window than Forskolin |  |  |
| O=C1CCCN1CC#CCN1CCCC1 [Oxotremorine] |  |  |  |  |  | > 85 | 25-30% |
